# Read-outs that look alike come from different tables or passages of the source.
# What was measured:
# BVDV = test: Plaque Reduction Assay; type: cell-based, Bovine Viral Diarrhea virus; conditions: Bovine viral diarrhea virus isolates and strains
# Description: For each compound the effective concentration was determined in duplicate 24-well plates by plaque reduction assays. Cell monolayers were infected with 100 PFU/well of virus. Then, serial dilutions of test compounds in MEM supplemented with 2% inactivated serum and 0.75% of methyl cellulose were added to the monolayers. Cultures were further incubated at 37° C. for 3 days, then fixed with 50% ethanol and 0.8% Crystal Violet, washed and air-dried. FIG. 7 is a graphical illustration of the results from the Plaque Reduction Assay. FIG. 8 is an image of BVDV plaque formation in the presence of increasing concentrations of β-D-2′-CH3-riboU.
# [1] = tested on: Human bone marrow cells (CFU-GM); test: Human bone marrow toxicity, CFU-GM clonogenic assay; type: cell-based; conditions: Homo sapiens, CFU-GM, read-out: IC50 CFU-GM
# Source text: Human bone marrow cells were collected from normal healthy volunteers and the mononuclear population was separated by Ficoll-Hypaque gradient centrifugation as described previously by Sommadossi J-P, Carlisle R. “Toxicity of 3′-azido-3′-deoxythymidine and 9-(1,3-dihydroxy-2-propoxymethyl)guanine for normal human hematopoietic progenitor cells in vitro” Antimicrobial Agents and Chemotherapy 1987; 31:452-454; and Sommadossi J-P, Schinazi R F, Chu C K, Xie M-Y. “Comparison of cytotoxicity of the (−)- and (+)-enantiomer of 2′,3′-dideoxy-3′-thiacytidine in normal human bone marrow progenitor cells” Biochemical Pharmacology 1992; 44:1921-1925. The culture assays for CFU-GM and BFU-E were performed using a bilayer soft agar or methylcellulose method. Drugs were diluted in tissue culture medium and filtered. After 14 to 18 days at 37° C. in a humidified atmosphere of 5% CO2 in air, colonies of greater than 50 cells were counted using an inverted microscope. The results in Table 4 are presented as the percent inhibition of colony formation in the presence of drug compared to solvent control cultures.
# [2] = tested on: Bovine Viral Diarrhea virus (BVDV); test: microbe, parasite or virus in culture; type: cell-based; conditions: Bovine viral diarrhea virus isolates and strains, read-out: BVDV EC50
# in vitro [3] = test: in vitro
# [4] = Cytotoxicity assay (sulforhodamine B, CC50), Human Hepatoma; type: cell-based; conditions: human, Huh7 cells (human hepatoma); Table 13; Huh7 cells
# Description: Cells were seeded at a rate of between 5×10^3 and 5×10^4/well into 96-well plates in growth medium overnight at 37° C. in a humidified CO2 (5%) atmosphere. New growth medium containing serial dilutions of the drugs was then added. After incubation for 4 days, cultures were fixed in 50% TCA and stained with sulforhodamineB. The optical density was read at 550 nm. The cytotoxic concentration was expressed as the concentration required to reduce the cell number by 50% (CC50).
# in vitro [5] = conditions: cattle
smiles,measurement,setting,value
CC1(O)[C@@H](O)[C@@H](CO)O[C@H]1n1cnc2c(=O)[nH]c(N)nc21 (stereo partly drawn) [β-D-2′-CH3-riboG],EC90,"BVDV; 72 h, concentration to obtain 90% virus suppression, 3 days, read-out: EC90",< 9 µM
same,EC90,"BVDV; Table 13, BVDV, 90% virus suppression, read-out: Plaque Reduction (EC90)",< 9 µM
same,IC50,[1],> 10 µM
same,EC50,[2],2 µM
same,CC50,in vitro [3]; cattle (Bos taurus),> 100 µM
same,CC50 at 4 days,in vitro [3]; hamster,20 µM
same,EC50 at 4 days,[4],> 250 µM
same,CC50,in vitro [5],100 µM

# — patent publication US20180235993A1 (priority 2000, published 2018)
